{"source": "a compilation of properties of binary mixtures (doi:10.1016/j.molliq.2013.09.012)", "assay": "xn = mol fraction of the nth substance listed", "conditions": "298.15 K, 101 kPa"}
{"smiles": "CCCCCC[n+]1ccn(C)c1.F[B-](F)(F)F", "note": "+ CC(C)(C)O", "values": [{"measurement": "viscosity", "setting": "x2 = 0", "value": 171.8, "unit": "mPa·s"}, {"measurement": "viscosity", "setting": "x2 = 0.1", "value": 131.4, "unit": "mPa·s"}, {"measurement": "viscosity", "setting": "x2 = 0.1449", "value": 115.6, "unit": "mPa·s"}, {"measurement": "viscosity", "setting": "x2 = 0.4008", "value": 49.8, "unit": "mPa·s"}, {"measurement": "viscosity", "setting": "x2 = 0.4992", "value": 34.1, "unit": "mPa·s"}, {"measurement": "viscosity", "setting": "x2 = 0.6009", "value": 23.3, "unit": "mPa·s"}, {"measurement": "viscosity", "setting": "x2 = 0.7007", "value": 18, "unit": "mPa·s"}, {"measurement": "viscosity", "setting": "x2 = 0.8983", "value": 11, "unit": "mPa·s"}]}
{"smiles": "CC(C)(C)O", "note": "+ CCCCCC[n+]1ccn(C)c1.F[B-](F)(F)F", "values": [{"measurement": "viscosity", "setting": "x1 = 1", "value": 4.444, "unit": "mPa·s"}]}
{"smiles": "CCCN", "note": "+ CCCCCC[n+]1ccn(C)c1.F[B-](F)(F)F", "values": [{"measurement": "viscosity", "setting": "x1 = 0.1949", "value": 97.3, "unit": "mPa·s"}, {"measurement": "viscosity", "setting": "x1 = 0.2959", "value": 69.2, "unit": "mPa·s"}, {"measurement": "viscosity", "setting": "x1 = 0.3803", "value": 50.3, "unit": "mPa·s"}, {"measurement": "viscosity", "setting": "x1 = 0.5991", "value": 17.7, "unit": "mPa·s"}, {"measurement": "viscosity", "setting": "x1 = 0.7005", "value": 10.1, "unit": "mPa·s"}, {"measurement": "viscosity", "setting": "x1 = 0.8066", "value": 4.466, "unit": "mPa·s"}, {"measurement": "viscosity", "setting": "x1 = 1", "value": 0.358, "unit": "mPa·s"}]}
